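Protocol summary: plate cells (96-well), add compound at 5 concentrations, incubate 48 h, interpolate endpoints linearly. GI50: concentration for 50% inhibition of growth. TGI: concentration producing complete growth inhibition.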
Key:
Assay in all cases: inhibition of tumour cell growth, NCI panel, 48 h
[1] = test system: SW-620 colon
[2] = test system: NCI/ADR-RES ovarian
[3] = test system: SK-OV-3 ovarian
[4] = test system: NCI-H460 lung
[5] = test system: M14 melanoma
[6] = test system: HS 578T breast
[7] = test system: MOLT-4 leukemia
[8] = test system: NCI-H23 lung
[9] = test system: HCT-116 colon
[10] = test system: SF-295 CNS
[11] = test system: MCF7 breast
[12] = test system: EKVX NSCLC
[13] = test system: SK-MEL-28 melanoma
[14] = test system: CAKI-1 renal
[15] = test system: CCRF-CEM leukemia
[16] = test system: SR leukemia
[17] = test system: HL-60(TB) leukemia
[18] = test system: HOP-92 NSCLC
[19] = test system: A498 renal
[20] = test system: RXF 393 renal
[21] = test system: ACHN renal
[22] = test system: TK-10 renal
[23] = test system: HT29 colon
[24] = test system: LOX IMVI melanoma
[25] = test system: HOP-62 NSCLC
[26] = test system: OVCAR-5 ovarian
[27] = test system: NCI-H226 lung
[28] = test system: SNB-75 CNS
[29] = test system: SK-MEL-5 melanoma
[30] = test system: MALME-3M melanoma
[31] = test system: IGROV1 ovarian
[32] = test system: UACC-62 melanoma
[33] = test system: MDA-MB-231 breast
[34] = test system: HCC-2998 colon
[35] = test system: OVCAR-8 ovarian
[36] = test system: MDA-MB-435
[37] = test system: RPMI-8226 leukemia
[38] = test system: SNB-19 CNS
[39] = test system: U251 CNS
[40] = test system: SK-MEL-2 melanoma
[41] = test system: PC-3 prostate
[42] = test system: HCT-15 colon
[43] = test system: UO-31 renal
[44] = test system: OVCAR-4 ovarian
[45] = test system: SN12C renal
[46] = test system: KM12 colon
[47] = test system: COLO 205 colon
[48] = test system: T-47D breast
[49] = test system: UACC-257 melanoma
[50] = test system: SF-539 CNS
[51] = test system: 786-0 renal
[52] = test system: NCI-H522 lung
[53] = test system: A549 NSCLC
[54] = test system: BT-549 breast
[55] = test system: K-562 leukemia
[56] = test system: DU-145 prostate
[57] = test system: SF-268 CNS

Which GI50 [1] does the source give for `CCN1CCN(c2ccc(NC(=O)Nc3ccc4c(ccn4-c4ccnc(C(=O)NC)c4)c3)cc2C(F)(F)F)CC1` here?
Its GI50 is 2.5 µM.

And the TGI [1]?
Its TGI is 4.79 µM.

What about the GI50 [2] of the same compound?
Its GI50 is 3.08 µM.

And the TGI [2]?
The TGI was 7.44 µM.

And the GI50 [3]?
Its GI50 is > 14.3 µM.

What about the TGI [3] of the same compound?
Its TGI is > 14.3 µM.

What about the GI50 [4] of the same compound?
The GI50 was 2.59 µM.

What about the TGI [4] of the same compound?
The TGI was 5.03 µM.

What about the GI50 [5] of the same compound?
Its GI50 is 2.35 µM.

What about the TGI [5] of the same compound?
Its TGI is 4.36 µM.

And the GI50 [6]?
Its GI50 is 2.5 µM.

And the TGI [6]?
Its TGI is 13.7 µM.

And the GI50 [7]?
The GI50 was 1.79 µM.

And the TGI [7]?
Its TGI is 9.46 µM.

And the GI50 [8]?
Its GI50 is 2.08 µM.

And the TGI [8]?
Its TGI is 4.23 µM.

And the GI50 [9]?
The GI50 was 2 µM.

What about the TGI [9] of the same compound?
Its TGI is 3.88 µM.

What about the GI50 [10] of the same compound?
Its GI50 is 0.925 µM.

What about the TGI [10] of the same compound?
Its TGI is 2.85 µM.

And the GI50 [11]?
Its GI50 is 2.15 µM.

What about the TGI [11] of the same compound?
The TGI was 5.05 µM.

What about the GI50 [12] of the same compound?
The GI50 was 2.27 µM.

What about the TGI [12] of the same compound?
The TGI was 4.47 µM.

What about the GI50 [13] of the same compound?
Its GI50 is 2.28 µM.

What about the TGI [13] of the same compound?
Its TGI is 4.37 µM.

And the GI50 [14]?
The GI50 was 2.68 µM.

And the TGI [14]?
The TGI was 5.07 µM.

And the GI50 [15]?
The GI50 was 3.77 µM.

And the TGI [15]?
The TGI was > 14.3 µM.

And the GI50 [16]?
Its GI50 is 0.644 µM.

What about the TGI [16] of the same compound?
The TGI was 3.22 µM.

What about the GI50 [17] of the same compound?
Its GI50 is 2.66 µM.

What about the TGI [17] of the same compound?
Its TGI is 6.11 µM.

And the GI50 [18]?
The GI50 was 1.55 µM.

And the TGI [18]?
Its TGI is 3.44 µM.

What about the GI50 [19] of the same compound?
Its GI50 is 13.5 µM.

What about the TGI [19] of the same compound?
Its TGI is > 14.3 µM.

And the GI50 [20]?
Its GI50 is 1.42 µM.

What about the TGI [20] of the same compound?
Its TGI is 3.58 µM.

And the GI50 [21]?
The GI50 was 2.56 µM.

What about the TGI [21] of the same compound?
Its TGI is 4.55 µM.

And the GI50 [22]?
The GI50 was 2.68 µM.

And the TGI [22]?
Its TGI is 4.82 µM.

What about the GI50 [23] of the same compound?
The GI50 was 1.07 µM.

And the TGI [23]?
The TGI was 3.22 µM.

And the GI50 [24]?
Its GI50 is 2.21 µM.

What about the TGI [24] of the same compound?
Its TGI is 4.22 µM.

What about the GI50 [25] of the same compound?
The GI50 was 2.13 µM.

What about the TGI [25] of the same compound?
Its TGI is 4.3 µM.

What about the GI50 [26] of the same compound?
Its GI50 is 11.4 µM.

And the TGI [26]?
Its TGI is > 14.3 µM.

And the GI50 [27]?
The GI50 was > 14.3 µM.

And the TGI [27]?
Its TGI is > 14.3 µM.

And the GI50 [28]?
The GI50 was 5.22 µM.

And the TGI [28]?
The TGI was > 14.3 µM.

What about the GI50 [29] of the same compound?
Its GI50 is 2.52 µM.

What about the TGI [29] of the same compound?
Its TGI is 4.56 µM.

What about the GI50 [30] of the same compound?
The GI50 was 2.07 µM.

And the TGI [30]?
Its TGI is 4.22 µM.

And the GI50 [31]?
The GI50 was 2.67 µM.

What about the TGI [31] of the same compound?
The TGI was 5.61 µM.

What about the GI50 [32] of the same compound?
Its GI50 is 2.34 µM.

What about the TGI [32] of the same compound?
Its TGI is 4.55 µM.

And the GI50 [33]?
Its GI50 is 2.53 µM.

And the TGI [33]?
The TGI was 5.01 µM.

And the GI50 [34]?
The GI50 was 2.47 µM.

What about the TGI [34] of the same compound?
The TGI was 4.54 µM.

What about the GI50 [35] of the same compound?
The GI50 was 2.62 µM.

What about the TGI [35] of the same compound?
Its TGI is 5.49 µM.

What about the GI50 [36] of the same compound?
The GI50 was 2.46 µM.

And the TGI [36]?
The TGI was 4.56 µM.

What about the GI50 [37] of the same compound?
The GI50 was 1.57 µM.

What about the TGI [37] of the same compound?
The TGI was > 14.3 µM.

What about the GI50 [38] of the same compound?
Its GI50 is 2.36 µM.

And the TGI [38]?
The TGI was 4.81 µM.

What about the GI50 [39] of the same compound?
The GI50 was 1.64 µM.

And the TGI [39]?
The TGI was 3.53 µM.

And the GI50 [40]?
Its GI50 is 12.6 µM.

And the TGI [40]?
Its TGI is > 14.3 µM.

And the GI50 [41]?
The GI50 was 2.34 µM.

What about the TGI [41] of the same compound?
Its TGI is 7.38 µM.

And the GI50 [42]?
Its GI50 is 1.04 µM.

What about the TGI [42] of the same compound?
Its TGI is 3.35 µM.

And the GI50 [43]?
The GI50 was 2.23 µM.

And the TGI [43]?
The TGI was 4.21 µM.

What about the GI50 [44] of the same compound?
The GI50 was 2.65 µM.

And the TGI [44]?
The TGI was 5.86 µM.

What about the GI50 [45] of the same compound?
The GI50 was > 14.3 µM.

What about the TGI [45] of the same compound?
The TGI was > 14.3 µM.

And the GI50 [46]?
Its GI50 is 0.741 µM.

And the TGI [46]?
The TGI was 2.85 µM.

And the GI50 [47]?
The GI50 was > 14.3 µM.

What about the TGI [47] of the same compound?
Its TGI is > 14.3 µM.

And the GI50 [48]?
Its GI50 is > 14.3 µM.

And the TGI [48]?
The TGI was > 14.3 µM.

What about the GI50 [49] of the same compound?
Its GI50 is 2.45 µM.

What about the TGI [49] of the same compound?
Its TGI is 4.68 µM.

What about the GI50 [50] of the same compound?
Its GI50 is 1.63 µM.

And the TGI [50]?
Its TGI is 3.48 µM.

And the GI50 [51]?
Its GI50 is 1.73 µM.

What about the TGI [51] of the same compound?
The TGI was 3.63 µM.

And the GI50 [52]?
The GI50 was > 14.3 µM.

And the TGI [52]?
Its TGI is > 14.3 µM.

And the GI50 [53]?
The GI50 was 2.28 µM.

And the TGI [53]?
The TGI was 4.5 µM.

And the GI50 [54]?
Its GI50 is > 14.3 µM.

And the TGI [54]?
Its TGI is > 14.3 µM.

What about the GI50 [55] of the same compound?
The GI50 was 0.793 µM.

What about the TGI [55] of the same compound?
The TGI was 4.14 µM.

What about the GI50 [56] of the same compound?
Its GI50 is 2.59 µM.

What about the TGI [56] of the same compound?
The TGI was 4.88 µM.

And the GI50 [57]?
Its GI50 is 2.53 µM.

And the TGI [57]?
Its TGI is 5.66 µM.

Source: PubChem BioAssay (NCI)
